# Results reported in US20240217946A1, “ANTIDEPRESSANT AND ANXIOLYTIC SUBSTITUTED CINNAMAMIDE COMPOUND” (TASLY PHARMACEUTICAL GROUP CO., LTD., priority 2021, published 2024).
# What was measured:
# [1] = tested on: SD rats; test: Vogel drinking conflict experiment in rats, single administration; type: in vivo; conditions: for Number of times of drinking water: 10 mg/kg i.g., 30 min after single dose, punishment stage 3 min, n = 8; for anxiolytic activity in drinking conflict experiment vs solvent control group: single intragastric administration of 20 mg/kg
# Description: 75 male SD rats, with the body weight of 180-220 g, were fed adaptively for 1 week, water deprived for 24 h for training period test. The animals screened to be qualified were randomly divided into 7 groups (a solvent control group, estazolam group, compound M2 group, compound II-3 group, compound II-4 group, compound II-5 group and compound II-10 group) according to their body weight, with 8 rats in each group. […] results of 3.1: the positive drug estazolam was administered intragastrically at 1.24 mg/kg; and the solvent control group was gavaged with an equal volume of solvent. The grouped animals were continued to be water deprived for 24 h and were given a single dose, and tested in a punishment experiment 30 min after the single dose.
# The experiment was carried out in two stages. The first stage is a training stage, in which 24 h after water deprivation, animals were placed in an operation box separately, and were allowed to fully explore until they found the bottle mouth and started to lick water (with an intensity of electric shock being 0 mA), a counter automatically recorded the number of licks within 3 min, and the animals that licked water less than 300 times were eliminated.
# Observation index: the number of water licks of rats in the punishment stage.
# (§1) Data was expressed as mean±standard (mean±SD) difference, and statistics of data differences were made by one-way analysis of variance (ANOVA) or nonparametric test, and differences between groups were determined by P<0.05.
# [2] = tested on: DA reuptake in rat brain synaptosomes; test: 3H-DA reuptake by rat brain synaptosomes; type: biochemical; conditions: 3H-DA 10 nM, rat brain synaptosomes; read-out: DA inhibition rate % IC50
# From the text: At present, it is believed that absolute or relative deficiencies of the central monoamine neurotransmitters 5-hydroxytryptamine (5-HT), norepinephrine (NA) and dopamine (DA) are closely related to depression and anxiety. This experiment was designed to evaluate, by the method of in vitro monoamine reuptake, the inhibitory effect of two samples of tested compound I-5 and compound M2 on reuptake of 5-HT, NA and DA in rat brain synaptosomes. The preparation of in vitro SD rat brain synaptosomes and isotopic tracer method were employed to investigate IC50 of inhibition of monoamine reuptake of DA, 5-HT and NA in two tested samples, in order to explore the possible mechanism of antidepressant and anxiolytic effects of compound I-5 and compound M2.
# Synaptosomes were separated using methods in literature to prepare brain synaptosomes. SD rats were rapidly decapitated with a small animal decapitator. After decapitation, brains were taken out quickly and precooled in an ice-water mixture, and the pia mater and vascular tissue were removed. Brain tissue was taken out. 10 times volume (ml/g) of 10 mM Tris HCl buffer (containing 0.32 M sucrose, pH 7.4) was added, an ultrasonic cell pulverizer was used for homogenization (maintaining at a low temperature), and the brain tissue was homogenized and centrifuged for 10 min (4° C., 1,000 g). After balanced centrifugation (1500 g, 10 min) at 4° C., precipitate was discarded, then supernatant was taken, and centrifugation (20000 g) was performed again for 30 min. The supernatant was discarded and the precipitate, i.e. crude extract of synaptic corpuscles, was retained. […] The precipitate was suspended in a small amount of Kreb's buffer (NaCl 118 mM, KCl 4.7 mM, CaCl2) 2.5 mM, MgSO4 1.2 mM, KH2PO4 1.2 mM, NaHCO325 mM and Glucose 11.1 mM, pH 7.2-7.4), BCA method was used for protein quantification, and the operation steps were as described in the description. […]
# The percentage inhibition of isotope ligand binding by each compound was calculated according to the following equation: […]
# [3] = tested on: C57 BL/6 mice; test: Mice tail suspension test after single oral administration; type: in vivo; conditions: 30 min after single administration; for Immobility time within 6 min: n = 10, mean ± SD
# From the text: “Behavioral despair” models were developed by Porsolt et al. in 1977, including rats and mice forced swimming models and mice tail suspension models, which were acute stress models. Mice tail suspension experiment was a simple and easy-to-implement experimental method for evaluating antidepressant drugs introduced by Stern et al. in 1985, and its principle was the same as that of forced swimming “immobility” experiment.
# 40 mice were divided into 4 groups according to the Excel complete random grouping method, with 10 animals in each group. […] Therefore, in this experimental study, with 30 mg/kg as the low dosage of compound M2, 60 mg/kg was set as the high dosage of compound M2 to conduct research in comparison with 60 mg/kg compound I-5.
# Each test group was administered intragastrically (i.g.) at 0.2 ml/10 g body weight.
# Mice tail suspension test was carried out 30 min after a single oral administration, and the tail suspension lasted for 6 min. The immobility time of mice within 6 min was recorded.
# as §1
IC50 [2] [nM],SMILES,Number of times of drinking water [1],anxiolytic activity in drinking conflict experiment vs solvent control group [1],Immobility time within 6 min ([3]; 60 mg/kg i.g.) [s],effect on immobility time of mice in tail suspension vs blank group ([3]; 60 mg/kg),Immobility time within 6 min ([3]; 30 mg/kg i.g.) [s],effect on immobility time of mice in tail suspension vs blank group ([3]; 30 mg/kg)
26 ± 1.33,CC(C)CNC(=O)/C=C/c1cc2c(c(C(F)(F)F)c1)OCO2 [Compound I-5],478.02 ± 106.32,significant anxiolytic activity,218.0 ± 35.3,not significantly affected,,
37.3 ± 1.97,NC(=O)/C=C/c1cc2c(c(C(F)(F)F)c1)OCO2 [Compound M2],527.26 ± 143.66,significant anxiolytic activity,171.8 ± 21.7,significantly shortened,183.9 ± 43.5,no statistically significant difference
